Results from article PMC6271338, “Synthesis and Cytotoxic Evaluation of Alkoxylated Chalcones” (Molecules, 2014).

Columns and labels:
HepG2 cells = assay: In vitro anti-proliferative SRB assay, HepG2; format: cell-based, human; details: for IC50: Homo sapiens, HepG2, increasing concentrations up to 30 μM, mean ± SD of at least three independent experiments; for SI (CC50 HMLE/IC50 HepG2) / SI (CC50 L02/IC50 HepG2): selectivity index; for SI (CC50 HMLE/IC50 HepG2): HMLE vs HepG2; for SI (CC50 L02/IC50 HepG2): L02 vs HepG2
Protocol: (§1) HepG2 and MCF7 cells were grown in the Eagle’s minimum essential medium with Earle’s balanced salts (MEM-EBSS) medium, HeLa, A549 and L02 cells were grown in Dulbecco’s Modified Eagle Media (DMEM), SW1990 cells were grown in RPMI-1640 medium, and HMLE cell were grown in DMEM/F-12 medium. […]
(§2) Cells were seeded into 96-well plates (4000 cells/well) and incubated at 37 °C in a humidified 5% CO2 atmosphere. After 24 h, the cells were treated with different concentrations of the compounds for 48 h in triplicate to generate dose-response curves. Cell viability was evaluated using the sulforhodamine B (SRB) assay as previous described.

HeLa cells = assay: In vitro anti-proliferative SRB assay, HeLa; format: cell-based, human; details: for IC50: Homo sapiens, HeLa, increasing concentrations up to 30 μM, mean ± SD of at least three independent experiments; for SI (CC50 HMLE/IC50 Hela) / SI (CC50 L02/IC50 Hela): selectivity index; for SI (CC50 HMLE/IC50 Hela): HMLE vs HeLa; for SI (CC50 L02/IC50 Hela): L02 vs HeLa
Protocol: as §1, §2

MCF-7 cells = assay: In vitro anti-proliferative SRB assay, MCF-7; format: cell-based, human; details: for IC50: Homo sapiens, MCF7, increasing concentrations up to 30 μM, mean ± SD of at least three independent experiments; for SI (CC50 HMLE/IC50 MCF7) / SI (CC50 L02/IC50 MCF7): selectivity index; for SI (CC50 HMLE/IC50 MCF7): HMLE vs MCF7; for SI (CC50 L02/IC50 MCF7): L02 vs MCF7
Protocol: as §1, §2

A549 cells = assay: In vitro anti-proliferative SRB assay, A549; format: cell-based, human; details: for IC50: Homo sapiens, A549, increasing concentrations up to 30 μM, mean ± SD of at least three independent experiments; for SI (CC50 HMLE/IC50 A549) / SI (CC50 L02/IC50 A549): selectivity index; for SI (CC50 HMLE/IC50 A549): HMLE vs A549; for SI (CC50 L02/IC50 A549): L02 vs A549
Protocol: as §1, §2

SW1990 cells = assay: In vitro anti-proliferative SRB assay, SW1990; format: cell-based, human; details: for IC50: Homo sapiens, SW1990, increasing concentrations up to 30 μM, mean ± SD of at least three independent experiments; for SI (CC50 HMLE/IC50 SW1990) / SI (CC50 L02/IC50 SW1990): selectivity index; for SI (CC50 HMLE/IC50 SW1990): HMLE vs SW1990; for SI (CC50 L02/IC50 SW1990): L02 vs SW1990
Protocol: as §1, §2

[1] = Cytotoxicity (SRB) against non-tumoral HMLE cells; format: cell-based, human; details: human, HMLE cells (non-tumoral human mammary epithelial cells); increasing concentrations up to 100 μM; mean ± SD of at least three independent experiments; read-out: Normal Human Cell Lines, CC50, HMLE
Protocol: (§3) All compounds were also evaluated for their cytotoxic activity against two non-tumoral human cell lines named human mammary epithelial cell (HMLE) and L02 (a human liver cell line) in Table 2 and SI values between the CC50 in non-tumoral cell lines and IC50 in tumoral cells calculated.
as §1
as §2, with “described. […] Etoposide was used as the positive control.” for “described.”

[2] = Cytotoxicity (SRB) against non-tumoral L02 cells; format: cell-based, human; details: human, L02 cells (non-tumoral human liver cell line); increasing concentrations up to 100 μM; mean ± SD of at least three independent experiments; read-out: Normal Human Cell Lines, CC50, L02
Protocol: as §3, §1
as §2, with “described. […] Etoposide was used as the positive control.” for “described.”

IC50 (HepG2 cells) [µM] | IC50 (HeLa cells) [µM] | IC50 (MCF-7 cells) [µM] | IC50 (A549 cells) [µM] | IC50 (SW1990 cells) [µM] | melting point [°C] | SMILES | SI (CC50 HMLE/IC50 HepG2) (HepG2 cells) | SI (CC50 L02/IC50 HepG2) (HepG2 cells) | SI (CC50 HMLE/IC50 Hela) (HeLa cells) | SI (CC50 L02/IC50 Hela) (HeLa cells) | SI (CC50 HMLE/IC50 MCF7) (MCF-7 cells) | SI (CC50 L02/IC50 MCF7) (MCF-7 cells) | SI (CC50 HMLE/IC50 A549) (A549 cells) | SI (CC50 L02/IC50 A549) (A549 cells) | SI (CC50 HMLE/IC50 SW1990) (SW1990 cells) | SI (CC50 L02/IC50 SW1990) (SW1990 cells) | CC50 at 48 h [1] [µM] | CC50 at 48 h [2] [µM]
19.5 ± 1.28 | 18.6 ± 0.36 | 25.44 ± 0.15 | 22.1 ± 0.6 | > 30 | 82.7 to 84.5 | COc1cccc(OC)c1/C=C/C(=O)c1ccc(C)cc1 [b4, (E)-1-(4-Methylphenyl)-3-(2,6-dimethoxyphenyl)prop-2-en-1-one] | 0.7 | 3.1 | 0.7 | 3.2 | 0.5 | 2.3 | 0.6 | 2.7 | <0.5 | <2.0 | 13.8 ± 1.69 | 59.6 ± 5.56
26.8 ± 0.3 | 20.3 ± 1.01 | 30.31 ± 0.29 | > 30 | > 30 | 98.9 to 101.1 | COc1cccc(OC)c1/C=C/C(=O)c1ccc(C)c(C)c1 [b5, (E)-1-(3,4-Dimethylphenyl)-3-(2,6-dimethoxyphenyl)prop-2-en-1-one] | 0.6 | 0.9 | 0.8 | 1.2 | 0.5 | 0.8 | <0.5 | <0.8 | <0.5 | <0.8 | 15.7 ± 0.76 | 25.2 ± 2.71
6.97 ± 0.55 | 9.98 ± 0.37 | 6.37 ± 0.05 | 14 ± 0.19 | 15.6 | 93.5 to 95.6 | COc1cccc(C(=O)/C=C/c2c(OC)cccc2OC)c1 [b7, (E)-1-(3-Methoxyphenyl)-3-(2,6-dimethoxyphenyl)prop-2-en-1-one] | 1.2 | 2.6 | 0.8 | 1.8 | 1.3 | 2.8 | 0.6 | 1.3 | 0.5 | 1.2 | 8.14 ± 0.53 | 18.1 ± 5.82
7.71 ± 0.21 | 12.2 ± 0.25 | 11.59 ± 0.07 | 13.2 ± 0.43 | 10.68 ± 0.08 | 63.1 to 64.8 | CCOc1cccc(C(=O)/C=C/c2c(OC)cccc2OC)c1 [b9, (E)-1-(3-Ethoxyphenyl)-3-(2,6-dimethoxyphenyl)prop-2-en-1-one] | 1.2 | 2.3 | 0.8 | 1.4 | 0.8 | 1.5 | 0.7 | 1.3 | 0.9 | 1.6 | 9.58 ± 0.44 | 17.4 ± 5.96
10.9 ± 0.46 | 14.4 ± 0.15 | 19.8 ± 0.69 | 22.7 ± 0.57 | 19.5 ± 0.23 | 99 to 101.2 | CCOc1ccc(C(=O)/C=C/c2c(OC)cccc2OC)cc1 [b10, (E)-1-(4-Ethoxyphenyl)-3-(2,6-dimethoxyphenyl)prop-2-en-1-one] | 1.3 | 3.4 | 1.0 | 2.6 | 0.7 | 1.9 | 0.6 | 1.6 | 0.7 | 1.9 | 13.8 ± 3.77 | 36.7 ± 3.41
23.6 ± 0.84 | 25.6 ± 1.16 | 29.03 ± 0.09 | 13.25 ± 0.02 | 22.3 ± 0.07 | 108.8 to 110.2 | COc1cccc(OC)c1/C=C/C(=O)c1cccc(OCc2ccccc2)c1 [b12, (E)-1-(3-(Benzyloxy)phenyl)-3-(2,6-dimethoxyphenyl)prop-2-en-1-one] | 1.3 | >4.2 | 1.2 | >3.9 | 1.1 | >3.4 | 2.4 |  | 1.4 |  | 31.4 ± 1.12 | > 100
21.8 ± 0.62 | > 30 | > 30 | > 30 | > 30 | 96.6 to 97.8 | COc1cccc(OC)c1/C=C/C(=O)c1ccc(OCc2ccccc2)cc1 [b13, (E)-1-(4-(Benzyloxy)phenyl)-3-(2,6-dimethoxyphenyl)prop-2-en-1-one] | >4.6 | >4.6 |  |  |  |  |  |  |  |  | > 100 | > 100
> 30 | > 30 | > 30 | > 30 | > 30 | 82.2 to 83.6 | COc1ccc(C(=O)/C=C/c2c(OC)cccc2OC)c(OCc2ccccc2)c1 [b14, (E)-1-(2-(Benzyloxy)-4-methoxyphenyl)-3-(2,6-dimethoxyphenyl)prop-2-en-1-one] |  |  |  |  |  |  |  |  |  |  | > 100 | > 100
> 30 | > 30 | > 30 | > 30 | > 30 | 112.8 to 114.1 | COc1cc(C(=O)/C=C/c2c(OC)cccc2OC)ccc1OCc1ccccc1 [b15, (E)-1-(4-(Benzyloxy)-3-methoxyphenyl)-3-(2,6-dimethoxyphenyl)prop-2-en-1-one] |  |  |  |  |  |  |  |  |  |  | > 100 | > 100
12 ± 0.23 | 8.54 ± 0.14 | 7.74 ± 0.1 | 9.33 ± 0.3 |  | 98.7 to 100.2 | CCOc1cc(OC)ccc1C(=O)/C=C/c1c(OC)cccc1OC [b17, (E)-1-(2-Ethoxy-4-methoxyphenyl)-3-(2,6-dimethoxyphenyl)prop-2-en-1-one] | 0.8 | 0.9 | 1.1 | 1.3 | 1.2 | 1.4 | 1.0 | 1.2 | 0.8 | 1.0 | 9.03 ± 0.8 | 10.9 ± 0.42
7.12 ± 0.67 | 9.26 ± 0.04 | 19.7 ± 0.2 | 13.6 ± 0.85 | 13.84 ± 0.06 | 120.5 to 122.7 | COc1ccc(C(=O)/C=C/c2c(OC)cccc2OC)cc1OC [b19, (E)-1-(3,4-Dimethoxyphenyl)-3-(2,6-dimethoxyphenyl)prop-2-en-1-one] | 1.5 | 5.6 | 1.1 | 4.3 | 0.5 | 2.0 | 0.8 | 2.9 | 0.8 | 2.9 | 10.5 ± 0.41 | 39.8 ± 6.32

SMILES | IC50 (HepG2 cells) [µM] | IC50 (HeLa cells) [µM] | IC50 (MCF-7 cells) [µM] | IC50 (A549 cells) [µM] | IC50 (SW1990 cells) [µM] | melting point [°C] | SI (CC50 HMLE/IC50 HepG2) (HepG2 cells) | SI (CC50 L02/IC50 HepG2) (HepG2 cells) | SI (CC50 HMLE/IC50 Hela) (HeLa cells) | SI (CC50 L02/IC50 Hela) (HeLa cells) | SI (CC50 HMLE/IC50 MCF7) (MCF-7 cells) | SI (CC50 L02/IC50 MCF7) (MCF-7 cells) | SI (CC50 HMLE/IC50 A549) (A549 cells) | SI (CC50 L02/IC50 A549) (A549 cells) | SI (CC50 HMLE/IC50 SW1990) (SW1990 cells) | SI (CC50 L02/IC50 SW1990) (SW1990 cells) | CC50 at 48 h [1] [µM] | CC50 at 48 h [2] [µM]
COc1cccc(OC)c1/C=C/C(=O)c1ccc2c(c1)OCO2 [b20, (E)-1-(Benzo[d][1,3]dioxol-5-yl)-3-(2,6-dimethoxyphenyl)prop-2-en-1-one] | 17.5 ± 0.54 | 16.2 ± 0.95 | 22.5 ± 0.37 | 19.5 ± 0.9 | 25.9 ± 0.65 | 138.6 to 140.4 | 0.8 | 3.5 | 0.9 | 3.8 | 0.6 | 2.7 | 0.7 | 3.1 | 0.5 | 2.4 | 14.2 ± 1.06 | 60.9 ± 5.61
